# Measured values published in US20190032014A1, “USING MICROBIOTA METABOLITES TO DIFFERENTIATE NAÏVE T-CELLS AND RELATED METHODS TO INDUCE OR PREVENT INFLAMMATORY CONDITIONS” (THE TEXAS A&M UNIVERSITY SYSTEM, priority 2016, published 2019).
# “Also recorded” adds a separate entry of the source.
# Experiments:
# CD4+ CD25− naïve T cells [1] = experiment: In vitro naïve T cell differentiation, Th1-skew (IFN-γ+); type: cell-based, C57BL/6 mice; conditions: Th1 skewing conditions; vs solvent control; listed as 5-HI
# Procedure: When naïve CD4+ CD25− cells were cultured 72 hours in αCD3/28 coated wells with Th0-, Th1- or Th2-skew cytokines and indole or solvent control, followed by stimulation with PMA, Ionomycin and Golgi Plug for the last 5 hours of culture, no effect on the % of Th1 and Th2 cells was observed (in contrast to the significant effect that indole has on Treg and Th17 cells; see FIGS. 2A and 2B).
# (§1) CD4+ CD25− T cells were isolated to high purity (>98%) from the pooled spleen and mesenteric lymph nodes of C57BL/6 mice (Jackson Labs) with a BD FACS Aria II flow cytometer. Fc Block (BD), αCD4-efluor450 (eBioscience clone GK1.5) and αCD25-PECy7 (eBioscience clone PC61.5) antibodies were used for staining before sorting.
# (§2) For Th1-skew: 5 ng/mL IL-12 (Peprotech cat. #210-12) and 10 µg/mL αIL-4 (BioXCell clone 11B11) were added to culture. For Th2-skew: 10 ng/mL IL-4 (Peprotech) and 10 μg/mL αIFN-γ (BioXCell clone R4-6A2) were added to culture. For Th17-skew: 10 ng/mL IL-6 (Peprotech), 5 ng/mL IL-23 (R&D), 0.5 ng/mL TGF-β (Peprotech), 10 μg/mL al-4 (BioXCell clone 11B11), and 10 μg/mL αIFN-γ (BioXCell clone R4-6A2) were added to culture. For Treg-skew: 2 ng/mL TGF-β (Peprotech) and 100 U/mL IL-2 (Roche) were added to culture. Sodium Propionate, sodium acetate, sodium butyrate and sodium chloride (all from Sigma-Aldrich) were solubilized in media and added to culture. Indole was solubilized in DMF (both from Sigma-Aldrich) at 2M and brought to final concentration in media. MGCD0103 (Selleck Chemicals) was solubilized in DMF at 2 mM and brought to final concentration in media. A 0.05% DMF solvent control was used for all experiments.
# Th17 transfer colitis = Th17 transfer colitis murine model; type: in vivo, Rag-null mice
# Procedure: Finally, the presentation describes a study of the effects of an indole-induced iTreg skew on the course of colitis in a Th17 transfer colitis murine model. […] Briefly, naïve T-cells (CD4+CD25−) were cultured in vitro with cytokines to skew function towards a Th17 phenotype, in the presence of indole or 5-HI, or not. The skewed cultures were transferred to Rag-null mice (lack T- and B-lymphocytes); control mice received no T-cells. Mice were monitored for weight loss (as a measure of inflammation) over several weeks and assessed at indicated timepoints for T-cell phenotype.
# The body weight of the mice was monitored from the time of cell transfer to the end point of day 49. […] Next, the Treg, Th17, and Th1 differentiation was assessed in cells obtained from the mesenteric lymph nodes (MLN) of mice administered directly with indole, 5-HI and control. These cells were determined/assayed by FACS for phenotype directly ex vivo from mice that were treated as in FIG. 28.
# IL-6 receptor / pSTAT3 = experiment: IL-6 receptor levels and STAT3 activity; type: cell-based; conditions: vs control
# Procedure: Indole and 5-HI were assessed for impact on TGF-β receptor expression and SMAD2/3 activity. […] Indole and 5-HI were also assessed for impact on IL-6 receptor levels and subsequent STAT3 activity.
# CD4+ CD25− naïve T cells [2] = experiment: In vitro naïve T cell differentiation, Treg-skew (FoxP3+ by FACS); type: cell-based, C57BL/6 mice; conditions: Treg skewing conditions, vs DMF control
# Procedure: (§3) Mesenteric lymph node (MLN) and spleen are harvested from WT or FOXP3^EGFP C57Bl/6 mice and homogenized. Spleen tissue is subjected to red blood cell lysis and pooled into a single cell suspension for counting. Counted cells are resuspended in sterile FACS buffer (PBS++ with 05% bovine serum albumin) at a concentration of ˜5×10^7 cells/mL and stained for 45 minutes at 4° C. with anti-CD4 and anti-CD25 fluorophore-conjugated monoclonal antibodies (mAb). After two washes, the stained cells are resuspended at ˜6×10^6 cells/mL in FACS buffer and immediately sorted. […] TDMMs are solubilized in DMF at 2 M and used at desired concentrations (e.g., 0.01, 0.1, 0.5 and 1.0 mM) in growth media; DMF in growth media (0.05%) is used as a solvent control.
# (§4) The % of Treg or Th17 cells are determined based on the expression of signature transcription factors, FoxP3 and Rorγt, respectively. In addition, signature cytokine markers for Treg and Th17, TGFβ or IL-17, respectively, among others are measured using intracellular cytokine staining. Since it is possible that a cell could be positive for FoxP3 and still express some IL-17, the final % of Tregs are determined as the cell population that is FoxP3+TGFβ+ Rorγt-IL-17−. Similarly, the % of Th17 cells are determined as the population that is FoxP3-TGFβ− Rorγt+IL-17+.
# as §1, §2
# CD4+ CD25− naïve T cells [3] = experiment: In vitro naïve T cell differentiation, Th17-skew (IL-17+ by FACS); type: cell-based, C57BL/6 mice; conditions: low and high titrations of IL-6
# [4] = tested on: wild-type or AhR KO T cells; experiment: T cell differentiation in wild-type vs AhR KO T cells; type: cell-based, mice
# Procedure: The aryl hydrocarbon receptor (AhR) is implicated in the differentiation of Treg and Th17 cells. The role of AhR was assessed with respect to indole's effect on Treg augmentation. Wild-type and AhR KO naïve T-cells were conditioned with increasing amounts of indole and then assessed for % of FoxP3 expression. […] Additionally, the role of AhR was assessed with respect to indole's effect on Th17 inhibition.
# The AhR knockout was further investigated for iTreg homing markers, CD62L and α4β7, as described above.
# Next, the AhR knockout was further investigated for the impact of AhR on 5-HI-mediated T cell differentiation.
# [5] = tested on: naïve T cells obtained from humans; experiment: Skewing of naïve T cells obtained from humans; type: cell-based
# CD4+ CD25− naïve T cells [6] = experiment: In vitro naïve T cell differentiation, Th17-skew (IL-17+ by FACS); type: cell-based, C57BL/6 mice; conditions: Th17 skewing conditions, vs DMF control
# Procedure: as §3, §4, §1, §2
# naïve T cells = conditions: Arpaia et al. 2013; cited from earlier work
# [7] = MLN, D15 and D45, by the end point
smiles,measurement,setting,value
Oc1ccc2[nH]ccc2c1 [5-hydroxyindole],effect on % Th1 cells (IFN-γ+),CD4+ CD25− naïve T cells [1],promotes Th1 and Th17 differentiation; also recorded: increase in % IFN-γ+ cells
same,"Th1 differentiation in vivo (% INF-γ+ T cells, Th1/Treg balance, MLN)",Th17 transfer colitis; [7],increases the number of Th17 differentiation in vivo
same,"Th17 differentiation in vivo (% IL-17+ T cells, Th17/Treg balance, MLN)",Th17 transfer colitis; [7],increases the number of Th17 differentiation in vivo
same,weight change (% from starting weight),"Th17 transfer colitis; mice receiving conditioned Th17 T cells, around day 43, end point day 49",declined precipitously
same,Th17 transfer colitis in vivo (overall),"Th17 transfer colitis; mouse, in vivo",exacerbates Th17 transfer colitis in vivo
same,% pSTAT3+ cells / IL-6 induced stat3,IL-6 receptor / pSTAT3,augments the IL-6 induced stat3 expression
same,effect on % FoxP3+ cells / Treg differentiation,CD4+ CD25− naïve T cells [2],decreasing the Treg population
same,effect on % FoxP3+ cells / Treg differentiation,CD4+ CD25− naïve T cells [2]; listed as 5-HI,inhibits a Treg response; also recorded: strongly inhibits Treg differentiation; also recorded: decreased the % FoxP3+ cells
same,% IL-17+ cells with titrations of IL-6,CD4+ CD25− naïve T cells [3],increased the % IL-17+ cells
same,% IL-17+ in wild-type vs AhR KO T cells,[4],significantly increased over wild-type cells
same,% of IFN-γ+ T cells in AhR KO vs wild-type T cells,[4]; Th1 skew,not significantly different than in wild-type cells
same,FoxP3+ % in wild-type vs AhR KO T cells,[4]; increasing amounts of test substance,decreases similarly in wild-type and AhR KO cells
same,skewing effects on Tregs and Th17 cells in human cells,[5],recapitulated on naïve T cells obtained from humans
same,effect on % IL-17+ cells / Th17 differentiation,CD4+ CD25− naïve T cells [6],increases Th17 cells
same,effect on % IL-17+ cells / Th17 differentiation,CD4+ CD25− naïve T cells [6]; listed as 5-HI,pro-Th17 response; also recorded: promotes Th1 and Th17 differentiation; also recorded: significant increase in % IL-17+ cells
O=C(O)C(=O)Cc1c[nH]c2ccccc12 [Indole-3-pyruvate],effect on % FoxP3+ cells / Treg differentiation,CD4+ CD25− naïve T cells [2],increasing Treg cells
same,effect on % IL-17+ cells / Th17 differentiation,CD4+ CD25− naïve T cells [6],modest (but significant) decrease in Th17
"CC(=O)O [acetate, reference compound]",effect on % FoxP3+ cells / Treg differentiation,CD4+ CD25− naïve T cells [2],no effect on Treg development
same,effect on % IL-17+ cells / Th17 differentiation,CD4+ CD25− naïve T cells [6],increases Th17 development
"CCC(=O)O [propionate, reference compound]",effect on % FoxP3+ cells / Treg differentiation,CD4+ CD25− naïve T cells [2],increases Treg and Th17 development
same,differentiation of naïve T cells to Treg cells,naïve T cells,promoted differentiation of naïve T cells to Treg cells
same,effect on % IL-17+ cells / Th17 differentiation,CD4+ CD25− naïve T cells [6],increases Treg and Th17 development
